Our source for the survival rate values is US11040027B2, “Protein kinase inhibitors for promoting liver regeneration or reducing or preventing hepatocyte death” (HEPAREGENIX GMBH, priority 2017, dated 2021).

For this experiment, the system named is C57BL/6N female mice. Nature of the experiment: In vivo survival study after Jo2 antibody injection. Conditions: 30 mg/kg oral gavage 1 h before i.p. 0.8 μg/g Jo2 antibody; versus vehicle only; 24 h; FIG. 1.

Each structure is given as a SMILES string.

Procedure: C57BL/6N female mice, age 6-9 weeks, purchased from Charles River Laboratories, Research Models and Services, Germany GmbH (Sulzfeld), were housed in accordance with the institutional guidelines of the University of TObingen, Germany. All animal experiments were approved by the German legal authorities.
Three experiments with n=3, n=4 and n=6 animals per group were performed. At time point t=−1 h), mice were dosed by oral gavage with either 30 mg/kg of compound, mixed in 2% hydroxymethylcellulose, pH 4.0) or vehicle only. One hour later (t=0 h), all animals were intraperitoneally (i.p.) injected with 0.8 μg/g mouse weight of Jo2 antibody (BD Pharmingen, San Diego, Calif.) diluted in 0.9% NaCl.
Mice were continuously monitored and survival was monitored all 15 min. After 24 h, all surviving animals were sacrificed.

Turning to `CCCS(=O)(=O)Nc1ccc(F)c(C(=O)c2c[nH]c3ncc(-c4ccc(Cl)cc4)cc23)c1F` [Example 2, Propane-1-sulfonic acid {3-[5-(4-chloro-phenyl)-1H-pyrrolo[2,3-b]pyridine-3-carbonyl]-2,4-difluoro-phenyl}-amide], the survival rate entry is “significantly higher”.
